According to patent publication US11000033B2, “Ketone or oxime compound, and herbicide” (NISSAN CHEMICAL CORPORATION, priority 2014, dated 2021):

How the values were obtained:
Type in all cases: in vivo
Scirpus juncoides = assay: Test Example 1: herbicidal activity, application before weed generation in submerged conditions (symbol B); conditions: application herbicide amount 320 g/ha
How it was run: (§1)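 Compound emulsion was diluted to a set herbicide amount and applied to the water surface on the sowing day, into submerged (4 cm) alluvial-soil pots sown with mixed weed seeds and transplanted 2.5-leaf rice. Pots were held in a 25–30 °C greenhouse, and weeds were scored 0–5 by herbicidal ratio after 3 weeks.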

Lolium multiflorum Lam. = assay: Test Example 4: herbicidal effect by soil treatment (symbol K); conditions: application herbicide amount 320 g/ha
How it was run: (§2)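 Seeds were sown in sterilized diluvial soil, covered with about 1.5 cm of soil, and the soil surface was sprayed with a water-diluted emulsion of the compound at a predetermined rate. Plants grew in a greenhouse at 25° C. to 30° C.; effects were scored visually 3 weeks after application.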

Stellaria media [1] = assay: Test Example 5: herbicidal effect by foliage application, plastic box (symbol P); conditions: 320 g/ha, 3 weeks after application
How it was run: (§3)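 Visual herbicidal score, taken three weeks post-application, of seedlings sprayed on the foliage with water-diluted emulsion at a predetermined amount; plants were 14 days old, greenhouse-raised at 25° C. to 30° C.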

Amaranthus retroflexus = assay: Test Example 4: herbicidal effect by soil treatment (symbol N); conditions: application herbicide amount 320 g/ha
How it was run: as §2

Setaria viridis [2] = assay: Test Example 5: herbicidal effect by foliage application, plastic box (symbol G); conditions: 320 g/ha, 3 weeks after application
How it was run: as §3

Monochoria vaginalis = assay: Test Example 1: herbicidal activity, application before weed generation in submerged conditions (symbol C); conditions: application herbicide amount 320 g/ha
How it was run: as §1

Setaria viridis [3] = assay: Test Example 4: herbicidal effect by soil treatment (symbol G); conditions: application herbicide amount 320 g/ha
How it was run: as §2

corn = assay: Test Example 4: effect on crop by soil treatment (symbol c); conditions: application herbicide amount 320 g/ha
How it was run: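 Greenhouse culture at 25° C. to 30° C. followed sowing of seed in spots on sterilized diluvial soil with a soil cover close to 1.5 cm thick.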

rapeseed [4] = assay: Test Example 4: effect on crop by soil treatment (symbol g); conditions: application herbicide amount 320 g/ha
How it was run: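 The test used sterilized diluvial soil. Seed was set down in spots and overlaid with about 1.5 cm of soil before growth in a greenhouse kept at 25° C. to 30° C.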

Leptochloa chinensis = assay: Test Example 3: herbicidal effect by foliage application, Wagner pot (symbol D); conditions: application herbicide amount 320 g/ha
How it was run: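 Seeds sown in alluvial soil kept under 0.1–0.5 cm water, greenhouse 25–30 °C; 14 d growth. Leaves treated by small sprayer with water-diluted emulsion at a predetermined rate. Effect graded by set scale, 3 weeks.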

Galium spurium [5] = assay: Test Example 5: herbicidal effect by foliage application, plastic box (symbol Q); conditions: 320 g/ha, 3 weeks after application
How it was run: as §3

Apera spica-venti = assay: Test Example 4: herbicidal effect by soil treatment (symbol L); conditions: application herbicide amount 320 g/ha
How it was run: as §2

[6] = test system: Echinochloa crus-galli var. crus-galli; assay: Test Example 4: herbicidal effect by soil treatment (symbol H); conditions: application herbicide amount 320 g/ha
How it was run: as §2

rapeseed [7] = assay: Test Example 5: effect on crop by foliage application, plastic box (symbol g); conditions: 320 g/ha, 3 weeks after application
How it was run: (§4)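 A greenhouse held between 25° C. and 30° C. was used to grow plants sown spot-wise, beneath ~1.5 cm of soil, in boxes of sterilized diluvial soil.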

wheat = assay: Test Example 5: effect on crop by foliage application, plastic box (symbol e); conditions: 320 g/ha, 3 weeks after application
How it was run: as §4

[8] = test system: Echinochloa crus-galli var. crus-galli; assay: Test Example 5: herbicidal effect by foliage application, plastic box (symbol H); conditions: 320 g/ha, 3 weeks after application
How it was run: as §3

Alopecurus myosuroides = assay: Test Example 5: herbicidal effect by foliage application, plastic box (symbol J); conditions: 320 g/ha, 3 weeks after application
How it was run: as §3

Galium spurium [9] = assay: Test Example 4: herbicidal effect by soil treatment (symbol Q); conditions: application herbicide amount 320 g/ha
How it was run: as §2

Stellaria media [10] = assay: Test Example 4: herbicidal effect by soil treatment (symbol P); conditions: application herbicide amount 320 g/ha
How it was run: as §2

| Compound | Herbicidal effect grade, B: Scirpus juncoides (Scirpus juncoides) | K (Lolium multiflorum Lam.) herbicidal effect grade (Lolium multiflorum Lam.) | P: Stellaria media, herbicidal effect grade (Stellaria media [1]) | N (Amaranthus retroflexus) herbicidal effect grade (Amaranthus retroflexus) | G: Setaria viridis, herbicidal effect grade (Setaria viridis [2]) | Herbicidal effect grade, C: Monochoria vaginalis (Monochoria vaginalis) | G (Setaria viridis) herbicidal effect grade (Setaria viridis [3]) | c (corn) effect on crop grade (corn) | g (rapeseed) effect on crop grade (rapeseed [4]) | herbicidal effect on D (Leptochloa chinensis), grade 0-5 (Leptochloa chinensis) | Q: Galium spurium, herbicidal effect grade (Galium spurium [5]) | L (Apera spica-venti) herbicidal effect grade (Apera spica-venti) | H (Echinochloa crus-galli var. crus-galli) herbicidal effect grade [6] | g: rapeseed, effect on crop grade (rapeseed [7]) | e: wheat, effect on crop grade (wheat) | H: Echinochloa crus-galli var. crus-galli, herbicidal effect grade [8] | J: Alopecurus myosuroides, herbicidal effect grade (Alopecurus myosuroides) | Q (Galium spurium) herbicidal effect grade (Galium spurium [9]) | P (Stellaria media) herbicidal effect grade (Stellaria media [10]) |
| --- | --- | --- | --- | --- | --- | --- | --- | --- | --- | --- | --- | --- | --- | --- | --- | --- | --- | --- | --- |
| CON=C(CC1CC(O)=C(c2c(C)cc(C)cc2C)C1=O)C(C)C (stereo not shown) [1-048] | 4 (Herbicidal ratio of 70% or higher and lower than 90%) | 5 (Herbicidal ratio of 90% or more (almost completely withered)) | 3 (Herbicidal ratio of 40% or higher and lower than 70%) | 1 (Herbicidal ratio of 5% or higher and lower than 20%) | 4 (Herbicidal ratio of 70% or higher and lower than 90%) | 1 (Herbicidal ratio of 5% or higher and lower than 20%) | 5 (Herbicidal ratio of 90% or more (almost completely withered)) | 3 (Herbicidal ratio of 40% or higher and lower than 70%) | 0 (Herbicidal ratio of 5% or lower (almost no effect)) | 4 (Herbicidal ratio of 70% or higher and lower than 90%) | 1 (Herbicidal ratio of 5% or higher and lower than 20%) | 5 (Herbicidal ratio of 90% or more (almost completely withered)) | 5 (Herbicidal ratio of 90% or more (almost completely withered)) | 3 (Herbicidal ratio of 40% or higher and lower than 70%) | 0 (Herbicidal ratio of 5% or lower (almost no effect)) | 5 (Herbicidal ratio of 90% or more (almost completely withered)) | 5 (Herbicidal ratio of 90% or more (almost completely withered)) | 0 (Herbicidal ratio of 5% or lower (almost no effect)) | 0 (Herbicidal ratio of 5% or lower (almost no effect)) |
| CON=C(C)C(c1ccc(F)cc1)C1CC(O)=C(c2c(C)cc(C)cc2C)C1=O (stereo not shown) [1-049] | 0 (Herbicidal ratio of 5% or lower (almost no effect)) | 0 (Herbicidal ratio of 5% or lower (almost no effect)) | 0 (Herbicidal ratio of 5% or lower (almost no effect)) | 0 (Herbicidal ratio of 5% or lower (almost no effect)) | 0 (Herbicidal ratio of 5% or lower (almost no effect)) | 0 (Herbicidal ratio of 5% or lower (almost no effect)) | 0 (Herbicidal ratio of 5% or lower (almost no effect)) | 0 (Herbicidal ratio of 5% or lower (almost no effect)) | 0 (Herbicidal ratio of 5% or lower (almost no effect)) | 0 (Herbicidal ratio of 5% or lower (almost no effect)) | 0 (Herbicidal ratio of 5% or lower (almost no effect)) | 0 (Herbicidal ratio of 5% or lower (almost no effect)) | 0 (Herbicidal ratio of 5% or lower (almost no effect)) | 0 (Herbicidal ratio of 5% or lower (almost no effect)) | 0 (Herbicidal ratio of 5% or lower (almost no effect)) | 0 (Herbicidal ratio of 5% or lower (almost no effect)) | 0 (Herbicidal ratio of 5% or lower (almost no effect)) | 0 (Herbicidal ratio of 5% or lower (almost no effect)) | 0 (Herbicidal ratio of 5% or lower (almost no effect)) |
| CCCC(CC1CC(O)=C(c2c(C)cc(C)cc2C)C1=O)=NOC (stereo not shown) [1-062] | 2 (Herbicidal ratio of 20% or higher and lower than 40%) | 5 (Herbicidal ratio of 90% or more (almost completely withered)) | 0 (Herbicidal ratio of 5% or lower (almost no effect)) | 0 (Herbicidal ratio of 5% or lower (almost no effect)) | 4 (Herbicidal ratio of 70% or higher and lower than 90%) | 1 (Herbicidal ratio of 5% or higher and lower than 20%) | 5 (Herbicidal ratio of 90% or more (almost completely withered)) | 4 (Herbicidal ratio of 70% or higher and lower than 90%) | 3 (Herbicidal ratio of 40% or higher and lower than 70%) | 3 (Herbicidal ratio of 40% or higher and lower than 70%) | 0 (Herbicidal ratio of 5% or lower (almost no effect)) | 4 (Herbicidal ratio of 70% or higher and lower than 90%) | 5 (Herbicidal ratio of 90% or more (almost completely withered)) | 3 (Herbicidal ratio of 40% or higher and lower than 70%) | 0 (Herbicidal ratio of 5% or lower (almost no effect)) | 4 (Herbicidal ratio of 70% or higher and lower than 90%) | 5 (Herbicidal ratio of 90% or more (almost completely withered)) | 0 (Herbicidal ratio of 5% or lower (almost no effect)) | 0 (Herbicidal ratio of 5% or lower (almost no effect)) |
| CON=C(C)CC1CC(OC(=O)COc2ccccc2OC)=C(c2c(C)cc(C)cc2C)C1=O (stereo not shown) [1-067] | 5 (Herbicidal ratio of 90% or more (almost completely withered)) | 5 (Herbicidal ratio of 90% or more (almost completely withered)) | 3 (Herbicidal ratio of 40% or higher and lower than 70%) | 5 (Herbicidal ratio of 90% or more (almost completely withered)) | 5 (Herbicidal ratio of 90% or more (almost completely withered)) | 1 (Herbicidal ratio of 5% or higher and lower than 20%) | 5 (Herbicidal ratio of 90% or more (almost completely withered)) | 3 (Herbicidal ratio of 40% or higher and lower than 70%) | 4 (Herbicidal ratio of 70% or higher and lower than 90%) | 5 (Herbicidal ratio of 90% or more (almost completely withered)) | 2 (Herbicidal ratio of 20% or higher and lower than 40%) | 5 (Herbicidal ratio of 90% or more (almost completely withered)) | 5 (Herbicidal ratio of 90% or more (almost completely withered)) | 4 (Herbicidal ratio of 70% or higher and lower than 90%) | 5 (Herbicidal ratio of 90% or more (almost completely withered)) | 5 (Herbicidal ratio of 90% or more (almost completely withered)) | 5 (Herbicidal ratio of 90% or more (almost completely withered)) | 0 (Herbicidal ratio of 5% or lower (almost no effect)) | 0 (Herbicidal ratio of 5% or lower (almost no effect)) |
